Measured values taken from US9790252B2, “2-fluorinated riboses and arabinoses and methods of use and synthesis” (CORNELL UNIVERSITY, priority 2009, dated 2017).

Tests used:
SirT2 = target: T1, SirT2 (Homo sapiens, UniProt Q8IXJ6); assay: SirT2 activity assay (HPLC of 2′- and 3′-AADPR); type: biochemical; details: 800 μM NAD+, 500 μM H3 peptide, pH 7.5, 45 mins at 37° C.
T1 sequence (Q8IXJ6 1-389): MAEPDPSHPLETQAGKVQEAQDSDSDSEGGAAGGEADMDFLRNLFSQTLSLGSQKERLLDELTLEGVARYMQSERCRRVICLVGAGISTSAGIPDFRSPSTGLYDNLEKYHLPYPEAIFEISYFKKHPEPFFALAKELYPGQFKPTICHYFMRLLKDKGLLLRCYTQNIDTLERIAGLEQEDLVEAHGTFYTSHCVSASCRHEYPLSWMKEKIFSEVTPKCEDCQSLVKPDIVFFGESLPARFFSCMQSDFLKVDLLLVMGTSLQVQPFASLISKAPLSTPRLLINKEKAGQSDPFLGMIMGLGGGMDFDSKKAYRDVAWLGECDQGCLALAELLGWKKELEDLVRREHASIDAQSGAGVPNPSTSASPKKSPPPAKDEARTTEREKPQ
Method: (§1) Reactions containing 800 μM NAD^+, 500 μM H3 peptide, and 100 mM phosphate buffer at pH 7.5, with varying concentrations of 2′-deoxy-2′-fluoro-nucleosides or nucleotides were initiated by addition of SirT2 enzyme to a concentration of 16.6 μM. Reactions were incubated for 45 mins at 37° C. and quenched by addition of trifluoroacetic acid to pH 2. After centrifugation to remove precipitates, reactions were injected on HPLC for activity analysis. Production of 2′- and 3′-AADPR were analyzed at 260 nm.
as §1, with “SirT2 Activity Assay: Reactions containing” for “Reactions containing”, “concentrations of 2′-deoxy-2′-chloro-nucleosides were initiated” for “concentrations of 2′-deoxy-2′-fluoro-nucleosides or nucleotides were initiated”

HEK293 cells [1] = assay: Toxicity to HEK293 cells (MTT); type: cell-based; details: for 100 μM absorbance / 100 μM relative viability: HEK293, 100 μM; for 100 μM absorbance / 100 μM relative viability / 500 μM absorbance / 500 μM relative viability: 12 hours; for 100 μM absorbance / 500 μM absorbance: 570 nm; for 100 μM relative viability / 500 μM relative viability: control = 1; for 500 μM absorbance / 500 μM relative viability: HEK293, 500 μM
Method: 1. HEK293 cells were seeded in 96-well plate at a density of 25,000 cells/well the day before the experiment starts;
(§2) 2. After the cells reach 50˜60% confluency, media was taken out, and 100 μL of fresh media was added to each well;
3. F-derivatives were plated at 100 and 500 μM (in duplicates) concentrations;
(§3) 4. After 12 hours' incubation at 37° C., the media was taken out, 100 μL of fresh media was added to each well along with 20 μL of 5 mg/mL of MTT solution (in PBS);
(§4) 5. After 1.5 hours' incubation at 37° C., media was taken out and 100 μL of DMSO was added to each well, the plate was mixed on shaker for 5 mins;
Absorbance was measured at 570 nm.
Assay for Determining Toxicity to HEK293 and Neuro2A Cells • 1. HEK293 and Neuro2A cells were seeded in 96-well plate at a density of 25,000 cells/well the day before the experiment starts; • 2. After the cells reach 50˜60% confluency, media was taken out, and 100 μL of fresh media was added to each well; • 3. Cl-derivatives were plated at 100 and 500 μM (in duplicates) concentrations; • 4. After 12 hours' incubation at 37° C., the media was taken out, 100 μL of fresh media was added to each well along with 20 μL of 5 mg/mL of MTT solution (in PBS); • 5. After 2 hours' incubation at 37° C., media was taken out and 100 μL of DMSO was added to each well, the plate was mixed on shaker for 5 mins; • 6. Absorbance was measured at 570 nm.

CD38 = target: T2, CD38 (Homo sapiens, UniProt P28907); assay: CD38 activity assay (NGD+ turnover, 295 nm absorbance); type: biochemical
T2 sequence (P28907 1-300): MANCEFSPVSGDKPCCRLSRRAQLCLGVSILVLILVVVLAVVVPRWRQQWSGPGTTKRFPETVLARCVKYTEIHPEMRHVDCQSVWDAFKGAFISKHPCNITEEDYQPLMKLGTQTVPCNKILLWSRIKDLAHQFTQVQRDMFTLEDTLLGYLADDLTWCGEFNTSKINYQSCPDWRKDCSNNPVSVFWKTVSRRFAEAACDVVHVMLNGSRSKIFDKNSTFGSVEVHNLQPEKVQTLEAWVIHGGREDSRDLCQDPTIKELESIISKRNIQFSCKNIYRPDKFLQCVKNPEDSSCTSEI
Method: (§5) CD38 (500 nM) in 100 mM phosphate buffer at pH 7.5 was incubated with various concentrations of 2′-deoxy-2′-fluoro-nucleosides and nucleotides for 30 mins at room temperature. 35 μL of the enzyme inhibitor solution was added to a cuvette containing 1 mL of 100 mM phosphate buffer at pH 7.5, containing 200 μM NGD^+. Reaction progress upon initiation by enzyme addition was monitored by 295 nm absorbance.
as §5, with “CD38 Activity Assay: CD38” for “CD38”, “2′-deoxy-2′-chloro-nucleosides were” for “2′-deoxy-2′-fluoro-nucleosides and nucleotides”

HEK293 cells [2] = assay: Ribo-F-NR dose response in HEK293 cells (MTT); type: cell-based; details: 12 hours; for absorbance: 570 nm
Method: 1. HEK293 cells were seeded in 96-well plate at a density of 10,000 cells/well the day before the experiment starts;
as §2
3. Ribo-F-NR (stock concentration=5.53 mM) were plated at 11, 22, 27, 44, 55, 83 and 111 μM (in triplicates) concentrations;
as §3, §4
6. Absorbance was measured at 570 nm.

[3] = Homo sapiens, HEK293, HEK293, 2′-deoxy-2′-fluoro-nucleosides and nucleotides
[4] = MTT 2 hours, chloro-nucleosides

SMILES | Ki (SirT2) | 100 μM absorbance (HEK293 cells [1]; MTT 1.5 hours) | 100 μM relative viability (HEK293 cells [1]) | 500 μM absorbance (HEK293 cells [1]; MTT 1.5 hours) | 500 μM relative viability (HEK293 cells [1]) | EC50 (HEK293 cells [1]; [3]) | also measured
NC(=O)c1ccc[n+]([C@@H]2O[C@H](CO)C(O)C2F)c1 (stereo partly shown) [ara-F-NR, 1-(2′-deoxy-2′-fluoro-arabinofuranosyl)-nicotinamide] | 2300 µM | 1.5325 | 0.6741 | 1.25 | 0.5499 | 550 µM | 
NC(=O)c1ccc[n+]([C@@H]2O[C@H](COP(=O)([O-])O)C(O)C2(F)F)c1 (stereo partly shown) [gem-diF-NMN, 2′-deoxy-2′,2′-difluoro-ribo-nicotinamide mononucleotide] | 162 µM | 1.559 | 0.6858 | 0 | 0 | 118 µM | CD38 inhibition (in words) (CD38; at 300 μM): inhibited at 300 μM
NC(=O)c1ccc[n+]([C@@H]2O[C@H](CO)[C@@H](O)C2(F)F)c1 [gem-diF-NR, 1-(2′-deoxy-2′,2′-difluoro-ribofuranosyl)-nicotinamide] |  | 1.679 | 0.7386 | 1.43 | 0.6289 | 846 µM | SirT2 Ki (SirT2): Ki = high mM
NC(=O)c1ccc[n+]([C@@H]2O[C@H](COP(=O)([O-])O)C(O)C2F)c1 (stereo partly shown) [ribo-F-NMN, 2′-deoxy-2′-fluoro-ribo-nicotinamide mononucleotide] | 450 µM | 1.2275 | 0.54 | 0.9845 | 0.4331 |  | EC50 (HEK293 cells [1]; HEK293, 2′-deoxy-2′-fluoro-nucleosides and nucleotides): 241 µM
NC(=O)c1ccc[n+]([C@@H]2O[C@H](CO)C(O)[C@@H]2F)c1 (stereo partly drawn) [ribo-F-NR, 1-(2-deoxy-2-fluoro-D-ribofuranosyl)-nicotinamide] | 1730 µM | 0.019 | 0.008358 | 0.0015 | 0.00066 | 17 µM | relative viability (HEK293 cells [2]; HEK293, 11 μM): 0.8067; absorbance (HEK293 cells [2]; HEK293, 11 μM): 0.1041; relative viability (HEK293 cells [2]; HEK293, 22 μM): 0.652; absorbance (HEK293 cells [2]; HEK293, 22 μM): 0.08411; relative viability (HEK293 cells [2]; HEK293, 27 μM): 0.4806; absorbance (HEK293 cells [2]; HEK293, 27 μM): 0.062; relative viability (HEK293 cells [2]; HEK293, 44 μM): 0.2539; absorbance (HEK293 cells [2]; HEK293, 44 μM): 0.03275; relative viability (HEK293 cells [2]; HEK293, 55.3 μM): 0.1163; absorbance (HEK293 cells [2]; HEK293, 55.3 μM): 0.015; relative viability (HEK293 cells [2]; HEK293, 83 μM): 0.04651; absorbance (HEK293 cells [2]; HEK293, 83 μM): 0.006; relative viability (HEK293 cells [2]; HEK293, 111 μM): 0.008358; absorbance (HEK293 cells [2]; HEK293, 111 μM): 0.001078
NC(=O)c1ccc[n+]([C@@H]2O[C@H](CO)C(O)C2Cl)c1 (stereo partly drawn) [β-ara-Cl-NR, 1-(2′-deoxy-2′-chloro-arabinofuranosyl)-nicotinamide] | 3200 µM |  |  |  |  |  | 100 μM absorbance (HEK293 cells [1]; [4]): 0; 100 μM relative viability (HEK293 cells [1]; chloro-nucleosides): 0; 500 μM absorbance (HEK293 cells [1]; [4]): 0; 500 μM relative viability (HEK293 cells [1]; chloro-nucleosides): 0; EC50 (HEK293 cells [1]; Homo sapiens, HEK293, HEK293, 2′-deoxy-2′-chloro-nucleosides): 5 µM
NC(=O)c1ccc[n+]([C@@H]2O[C@H](CO)C(O)C2(Cl)Cl)c1 (stereo partly drawn) [β-gem-diCl-NR, 1-(2′-deoxy-2′,2′-dichloro-ribofuranosyl)-nicotinamide] | 403 µM |  |  |  |  |  | inhibition at 500 µM (CD38; at 500 μM, read-out: CD38 % inhibited): 50%; 100 μM absorbance (HEK293 cells [1]; [4]): 2.05; 100 μM relative viability (HEK293 cells [1]; chloro-nucleosides): 0.8436; 500 μM absorbance (HEK293 cells [1]; [4]): 1.63; 500 μM relative viability (HEK293 cells [1]; chloro-nucleosides): 0.6708; kills % of HEK293 cells (HEK293 cells [1]; HEK293, at 500 μM): kills 30% at 500 μM
